Measurements: the supplement of paper PMC10307832

Key:
Assay in all cases: relative viability (nuclei count vs DMSO), 5 days (fraction); higher = more cells survive
XMD14-99 + Trametinib = compound: CN1CCN(CC1)C2=CC(=C(C=C2)NC3=NC(=C(S3)C(=O)C4=C(C=CC=C4Cl)Cl)N)OC [XMD14-99] + CC(=O)Nc1cccc(-n2c(=O)n(C3CC3)c(=O)c3c(Nc4ccc(I)cc4F)n(C)c(=O)c(C)c32)c1 [Trametinib] (partner 0.02 µM)
Procedure, shortened: (§1)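 The day after seeding in 1536-well plates, lung cancer cell lines were treated by pin tool with a single drug, or with a fixed anchor-drug dose together with five library-drug doses (not always all listed) in √10 steps. After 5 days, a combined fix-and-stain solution (final 0.05% Triton X-100, 1% formaldehyde, 1 ug/ml Hoechst) was added. Nuclei counted on 4× images gave relative viability as treated counts over vehicle counts, reported as the median of duplicate plates.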

XMD14-99 + Luminespib = compound: CN1CCN(CC1)C2=CC(=C(C=C2)NC3=NC(=C(S3)C(=O)C4=C(C=CC=C4Cl)Cl)N)OC [XMD14-99] + CCNC(=O)c1noc(-c2cc(C(C)C)c(O)cc2O)c1-c1ccc(CN2CCOCC2)cc1 [Luminespib] (partner 0.01 µM)
Procedure, shortened: as §1

AZD1208 + Pictilisib = compound: N[C@@H]1CCCN(c2c(/C=C3\SC(=O)NC3=O)cccc2-c2ccccc2)C1 [AZD1208] + CS(=O)(=O)N1CCN(Cc2cc3nc(-c4cccc5[nH]ncc45)nc(N4CCOCC4)c3s2)CC1 [Pictilisib] (partner 1 µM)
Procedure, shortened: as §1

AZD1208 + Olaparib = compound: N[C@@H]1CCCN(c2c(/C=C3\SC(=O)NC3=O)cccc2-c2ccccc2)C1 [AZD1208] + O=C(c1cc(Cc2n[nH]c(=O)c3ccccc23)ccc1F)N1CCN(C(=O)C2CC2)CC1 [Olaparib] (partner 8 µM)
Procedure, shortened: as §1

Cell Line: RERF-LC-KJ
- relative viability (XMD14-99 + Trametinib; first compound 0.08 µM): 0.808
- relative viability (XMD14-99 + Trametinib; first compound 0.8 µM): 0.846
- relative viability (XMD14-99 + Trametinib; first compound 2.53 µM): 0.76
- relative viability (XMD14-99 + Trametinib; first compound 8 µM): 0.682
- relative viability (XMD14-99 + Luminespib; first compound 0.08 µM): 1.26
- relative viability (XMD14-99 + Luminespib; first compound 0.8 µM): 1.13
- relative viability (XMD14-99 + Luminespib; first compound 2.53 µM): 1.05
- relative viability (XMD14-99 + Luminespib; first compound 8 µM): 0.822
- relative viability (AZD1208 + Pictilisib; first compound 0.08 µM): 0.434
- relative viability (AZD1208 + Pictilisib; first compound 0.253 µM): 0.526
- relative viability (AZD1208 + Pictilisib; first compound 0.8 µM): 0.464
- relative viability (AZD1208 + Pictilisib; first compound 2.53 µM): 0.438
- relative viability (AZD1208 + Pictilisib; first compound 8 µM): 0.368
- relative viability (AZD1208 + Olaparib; first compound 0.08 µM): 0.826
- relative viability (AZD1208 + Olaparib; first compound 0.253 µM): 0.965
- relative viability (AZD1208 + Olaparib; first compound 0.8 µM): 0.857
- relative viability (AZD1208 + Olaparib; first compound 2.53 µM): 0.825
- relative viability (AZD1208 + Olaparib; first compound 8 µM): 0.673

Cell Line: SK-LU-1
- relative viability (XMD14-99 + Trametinib; first compound 0.08 µM): 0.538
- relative viability (XMD14-99 + Trametinib; first compound 0.8 µM): 0.502
- relative viability (XMD14-99 + Trametinib; first compound 2.53 µM): 0.473
- relative viability (XMD14-99 + Trametinib; first compound 8 µM): 0.309
- relative viability (XMD14-99 + Luminespib; first compound 0.08 µM): 0.197
- relative viability (XMD14-99 + Luminespib; first compound 0.8 µM): 0.201
- relative viability (XMD14-99 + Luminespib; first compound 2.53 µM): 0.235
- relative viability (XMD14-99 + Luminespib; first compound 8 µM): 0.184
- relative viability (AZD1208 + Pictilisib; first compound 0.08 µM): 0.459
- relative viability (AZD1208 + Pictilisib; first compound 0.253 µM): 0.607
- relative viability (AZD1208 + Pictilisib; first compound 0.8 µM): 0.532
- relative viability (AZD1208 + Pictilisib; first compound 2.53 µM): 0.567
- relative viability (AZD1208 + Pictilisib; first compound 8 µM): 0.431
- relative viability (AZD1208 + Olaparib; first compound 0.08 µM): 0.446
- relative viability (AZD1208 + Olaparib; first compound 0.253 µM): 0.419
- relative viability (AZD1208 + Olaparib; first compound 0.8 µM): 0.367
- relative viability (AZD1208 + Olaparib; first compound 2.53 µM): 0.448
- relative viability (AZD1208 + Olaparib; first compound 8 µM): 0.436

Cell Line: SK-MES-1
- relative viability (XMD14-99 + Trametinib; first compound 0.08 µM): 0.524
- relative viability (XMD14-99 + Trametinib; first compound 0.8 µM): 0.564
- relative viability (XMD14-99 + Trametinib; first compound 2.53 µM): 0.622
- relative viability (XMD14-99 + Trametinib; first compound 8 µM): 0.392
- relative viability (XMD14-99 + Luminespib; first compound 0.08 µM): 0.786
- relative viability (XMD14-99 + Luminespib; first compound 0.8 µM): 0.73
- relative viability (XMD14-99 + Luminespib; first compound 2.53 µM): 0.729
- relative viability (XMD14-99 + Luminespib; first compound 8 µM): 0.566
- relative viability (AZD1208 + Pictilisib; first compound 0.08 µM): 0.257
- relative viability (AZD1208 + Pictilisib; first compound 0.253 µM): 0.326
- relative viability (AZD1208 + Pictilisib; first compound 0.8 µM): 0.303
- relative viability (AZD1208 + Pictilisib; first compound 2.53 µM): 0.3
- relative viability (AZD1208 + Pictilisib; first compound 8 µM): 0.291
- relative viability (AZD1208 + Olaparib; first compound 0.08 µM): 0.697
- relative viability (AZD1208 + Olaparib; first compound 0.253 µM): 0.715
- relative viability (AZD1208 + Olaparib; first compound 0.8 µM): 0.672
- relative viability (AZD1208 + Olaparib; first compound 2.53 µM): 0.653
- relative viability (AZD1208 + Olaparib; first compound 8 µM): 0.577

Cell Line: SW 1573
- relative viability (XMD14-99 + Trametinib; first compound 0.08 µM): 0.547
- relative viability (XMD14-99 + Trametinib; first compound 0.8 µM): 0.58
- relative viability (XMD14-99 + Trametinib; first compound 2.53 µM): 0.74
- relative viability (XMD14-99 + Trametinib; first compound 8 µM): 0.47
- relative viability (XMD14-99 + Luminespib; first compound 0.08 µM): 0.157
- relative viability (XMD14-99 + Luminespib; first compound 0.8 µM): 0.365
- relative viability (XMD14-99 + Luminespib; first compound 2.53 µM): 0.236
- relative viability (XMD14-99 + Luminespib; first compound 8 µM): 0.214
- relative viability (AZD1208 + Pictilisib; first compound 0.08 µM): 0.411
- relative viability (AZD1208 + Pictilisib; first compound 0.253 µM): 0.418
- relative viability (AZD1208 + Pictilisib; first compound 0.8 µM): 0.421
- relative viability (AZD1208 + Pictilisib; first compound 2.53 µM): 0.347
- relative viability (AZD1208 + Pictilisib; first compound 8 µM): 0.344
- relative viability (AZD1208 + Olaparib; first compound 0.08 µM): 0.417
- relative viability (AZD1208 + Olaparib; first compound 0.253 µM): 0.499
- relative viability (AZD1208 + Olaparib; first compound 0.8 µM): 0.336
- relative viability (AZD1208 + Olaparib; first compound 2.53 µM): 0.445
- relative viability (AZD1208 + Olaparib; first compound 8 µM): 0.406
